Results as given in US9725465B2, “Biaryl acetamide compounds and methods of use thereof” (Ambit Biosciences Corporation, priority 2013, dated 2017).

What was measured:
[1] = biological target: FLT3 kinase (Homo sapiens (Human), UniProt P36888); experiment: Competition binding assay (Kd), FLT3; settings: competition binding assay
[2] = biological target: KIT kinase (Homo sapiens (Human), UniProt P10721); experiment: Competition binding assay (Kd), KIT; settings: competition binding assay
How it was run: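 Kd derived from eleven-point threefold serial dilutions of compound competing with bead-bound ligand for kinase; bound kinase eluted and measured by quantitative PCR. Kinase supplied either as a T7 phage fusion or expressed in HEK-293 cells with a DNA tag; DMSO served as control.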

[3] = biological target: FLT3-ITD (Homo sapiens (Human), UniProt P36888, INS600HVDFREYEYD); experiment: pFLT3 MSD assay, Ba/F3 FLT3-ITD; format: cell-based; settings: Ba/F3 FLT3-ITD cells, 2 hours, read-out: BaF3-FLT3-ITD pFlt3 IC50
Sequence of FLT3-ITD (P36888 other isoform, or with tags, fused parts or gaps limits assumed, stated change not applied): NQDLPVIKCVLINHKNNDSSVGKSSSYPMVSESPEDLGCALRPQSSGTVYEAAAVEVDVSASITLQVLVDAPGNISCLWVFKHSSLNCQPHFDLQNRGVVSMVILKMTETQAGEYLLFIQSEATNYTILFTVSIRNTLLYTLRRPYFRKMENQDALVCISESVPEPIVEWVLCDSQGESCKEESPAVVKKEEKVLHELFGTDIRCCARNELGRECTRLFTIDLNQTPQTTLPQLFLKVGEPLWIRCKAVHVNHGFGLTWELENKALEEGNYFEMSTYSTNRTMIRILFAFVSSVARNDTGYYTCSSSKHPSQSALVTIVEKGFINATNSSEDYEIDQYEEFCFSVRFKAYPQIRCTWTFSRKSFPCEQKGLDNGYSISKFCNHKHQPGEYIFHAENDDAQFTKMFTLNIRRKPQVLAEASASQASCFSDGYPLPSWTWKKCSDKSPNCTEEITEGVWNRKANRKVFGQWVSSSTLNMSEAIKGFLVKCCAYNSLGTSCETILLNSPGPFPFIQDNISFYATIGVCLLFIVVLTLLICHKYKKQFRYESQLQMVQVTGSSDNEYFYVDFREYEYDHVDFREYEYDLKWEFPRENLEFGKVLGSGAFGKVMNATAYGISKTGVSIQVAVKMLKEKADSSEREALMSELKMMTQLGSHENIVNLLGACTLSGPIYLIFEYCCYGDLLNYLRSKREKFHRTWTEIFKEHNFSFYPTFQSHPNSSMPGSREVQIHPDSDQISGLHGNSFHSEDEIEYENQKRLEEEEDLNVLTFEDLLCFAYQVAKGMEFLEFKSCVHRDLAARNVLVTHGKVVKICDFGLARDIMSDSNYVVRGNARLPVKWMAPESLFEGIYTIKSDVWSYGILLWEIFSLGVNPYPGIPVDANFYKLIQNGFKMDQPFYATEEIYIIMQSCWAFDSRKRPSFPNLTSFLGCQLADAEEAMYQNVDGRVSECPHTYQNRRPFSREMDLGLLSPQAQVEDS

Sequence of FLT3 kinase (P36888 27-993): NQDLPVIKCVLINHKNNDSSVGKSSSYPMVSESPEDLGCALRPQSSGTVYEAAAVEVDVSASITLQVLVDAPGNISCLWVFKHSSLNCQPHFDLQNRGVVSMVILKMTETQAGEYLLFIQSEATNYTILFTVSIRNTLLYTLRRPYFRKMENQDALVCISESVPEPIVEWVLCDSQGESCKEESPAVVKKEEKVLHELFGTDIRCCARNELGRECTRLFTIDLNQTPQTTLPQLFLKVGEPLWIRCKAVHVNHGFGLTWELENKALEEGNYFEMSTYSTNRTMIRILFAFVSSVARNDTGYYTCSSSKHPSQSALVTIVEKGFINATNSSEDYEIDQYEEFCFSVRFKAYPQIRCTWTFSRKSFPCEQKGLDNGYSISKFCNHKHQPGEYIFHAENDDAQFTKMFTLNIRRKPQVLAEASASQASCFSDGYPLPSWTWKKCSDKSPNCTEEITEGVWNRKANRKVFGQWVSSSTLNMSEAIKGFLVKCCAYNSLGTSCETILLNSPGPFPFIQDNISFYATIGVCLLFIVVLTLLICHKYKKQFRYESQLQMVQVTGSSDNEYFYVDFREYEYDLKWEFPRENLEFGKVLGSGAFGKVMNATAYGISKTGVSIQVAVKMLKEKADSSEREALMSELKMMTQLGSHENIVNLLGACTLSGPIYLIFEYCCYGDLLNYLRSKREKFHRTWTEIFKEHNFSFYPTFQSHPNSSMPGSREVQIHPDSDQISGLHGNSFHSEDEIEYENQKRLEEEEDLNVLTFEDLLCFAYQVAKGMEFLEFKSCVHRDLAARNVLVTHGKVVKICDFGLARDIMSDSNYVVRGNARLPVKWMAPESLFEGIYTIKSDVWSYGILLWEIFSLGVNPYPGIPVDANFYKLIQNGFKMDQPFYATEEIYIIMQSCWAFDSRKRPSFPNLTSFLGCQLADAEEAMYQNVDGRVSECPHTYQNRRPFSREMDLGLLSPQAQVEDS
Sequence of KIT kinase (P10721 26-976): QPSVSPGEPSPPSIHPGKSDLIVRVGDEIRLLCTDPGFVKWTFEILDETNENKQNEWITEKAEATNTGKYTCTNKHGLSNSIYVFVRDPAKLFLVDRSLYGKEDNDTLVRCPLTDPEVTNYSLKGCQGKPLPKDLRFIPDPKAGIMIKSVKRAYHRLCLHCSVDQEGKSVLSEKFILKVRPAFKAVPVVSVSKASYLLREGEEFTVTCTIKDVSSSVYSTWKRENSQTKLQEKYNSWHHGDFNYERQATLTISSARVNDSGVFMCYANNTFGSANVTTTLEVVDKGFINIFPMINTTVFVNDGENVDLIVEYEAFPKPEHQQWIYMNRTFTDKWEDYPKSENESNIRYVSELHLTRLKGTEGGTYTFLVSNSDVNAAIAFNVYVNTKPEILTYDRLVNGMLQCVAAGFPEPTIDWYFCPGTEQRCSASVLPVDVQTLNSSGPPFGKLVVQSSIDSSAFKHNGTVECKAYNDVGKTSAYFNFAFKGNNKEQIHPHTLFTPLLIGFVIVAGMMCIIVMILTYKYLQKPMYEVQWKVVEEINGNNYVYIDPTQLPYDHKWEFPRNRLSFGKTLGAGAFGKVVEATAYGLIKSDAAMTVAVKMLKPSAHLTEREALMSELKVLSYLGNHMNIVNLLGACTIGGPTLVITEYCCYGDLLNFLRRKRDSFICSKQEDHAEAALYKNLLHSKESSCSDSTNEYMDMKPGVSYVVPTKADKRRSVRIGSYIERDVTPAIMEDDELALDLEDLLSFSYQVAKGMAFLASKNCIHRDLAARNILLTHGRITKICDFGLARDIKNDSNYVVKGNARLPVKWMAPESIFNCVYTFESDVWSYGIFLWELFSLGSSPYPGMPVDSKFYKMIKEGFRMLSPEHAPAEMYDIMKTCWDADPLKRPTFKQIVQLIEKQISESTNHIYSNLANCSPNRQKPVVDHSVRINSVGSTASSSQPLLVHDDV

Kd [1] [nM]	Kd [2] [nM]	IC50 [3] [nM]	Compound
< 5	< 5	< 10	O=C(Cc1ccc(-c2cnc3[nH]c(CO)cc3c2)cc1F)Nc1cc(C2(C(F)(F)F)CC2)on1 [Example 70, 2-(2-fluoro-4-(2-(hydroxymethyl)-1H-pyrrolo[2,3-b]pyridin-5-yl)phenyl)-N-(5-(1-(trifluoromethyl)cyclopropyl)isoxazol-3-yl)acetamide]
< 5	5 to 20	< 10	CC(=O)OCCOc1cc2ncc(-c3ccc(CC(=O)Nc4cc(C5(C(F)(F)F)CC5)on4)c(F)c3)nc2cc1OCCOC(C)=O [Example 74, ((2-(3-fluoro-4-(2-oxo-2-((5-(1-(trifluoromethyl)cyclopropyl)isoxazol-3-yl)amino)ethyl)phenyl)quinoxaline-6,7-diyl)bis(oxy))bis(ethane-2,1-diyl) diacetate]
< 5	< 5	< 10	O=C(Cc1ccc(-c2cnc3cc(OCCO)c(OCCO)cc3n2)cc1F)Nc1cc(C2(C(F)(F)F)CC2)on1 [Example 75, 2-(4-(6,7-bis(2-hydroxyethoxy)quinoxalin-2-yl)-2-fluorophenyl)-N-(5-(1-(trifluoromethyl)cyclopropyl)isoxazol-3-yl)acetamide]
< 5	5 to 20	< 10	O=C(Cc1ccc(-c2cnc3cc4c(cc3n2)OCCO4)cc1F)Nc1cc(C2(C(F)(F)F)CC2)on1 [Example 76, 2-(4-(2,3-dihydro-[1,4]dioxino[2,3-g]quinoxalin-7-yl)-2-fluorophenyl)-N-(5-(1-(trifluoromethyl)cyclopropyl)isoxazol-3-yl)acetamide]
< 5	< 5	< 10	COc1cc2nc(-c3ccc(CC(=O)Nc4cc(C5(C(F)(F)F)CC5)on4)c(F)c3)cnc2cc1O [Example 78, 2-(2-fluoro-4-(6-hydroxy-7-methoxyquinoxalin-2-yl)phenyl)-N-(5-(1-(trifluoromethyl)cyclopropyl)isoxazol-3-yl)acetamide]
< 5	< 5	< 10	COc1cc2nc(-c3ccc(CC(=O)Nc4cc(C5(C(F)(F)F)CC5)on4)c(F)c3)cnc2cc1OCCN1CCOCC1 [Example 79, 2-(2-fluoro-4-(7-methoxy-6-(2-morpholinoethoxy)quinoxalin-2-yl)phenyl)-N-(5-(1-(trifluoromethyl)cyclopropyl)isoxazol-3-yl)acetamide]
< 5	< 5	< 10	COc1cc2ncc(-c3ccc(CC(=O)Nc4cc(C5(C(F)(F)F)CC5)on4)c(F)c3)nc2cc1OCCO [Example 80, 2-(2-fluoro-4-(7-(2-hydroxyethoxy)-6-methoxyquinoxalin-2-yl)phenyl)-N-(5-(1-(trifluoromethyl)cyclopropyl)isoxazol-3-yl)acetamide]
< 5	< 5	< 10	CCOc1cc2ncc(-c3ccc(CC(=O)Nc4cc(C5(C(F)(F)F)CC5)on4)c(F)c3)cc2cc1OC [Example 86, 2-(4-(7-ethoxy-6-methoxyquinolin-3-yl)-2-fluorophenyl)-N-(5-(1-(trifluoromethyl)cyclopropyl)isoxazol-3-yl)acetamide]
< 5	< 5	< 10	COc1cc2cc(-c3ccc(CC(=O)Nc4cc(C5(C(F)(F)F)CC5)on4)c(F)c3)cnc2cc1OCCO [Example 88, 2-(2-fluoro-4-(7-(2-hydroxyethoxy)-6-methoxyquinolin-3-yl)phenyl)-N-(5-(1-(trifluoromethyl)cyclopropyl)isoxazol-3-yl)acetamide]
< 5	< 5	< 10	COc1cc2nc(-c3ccc(CC(=O)Nc4cc(C5(C(F)(F)F)CC5)on4)c(F)c3)cnc2cc1OC1CN(C)C1 [Example 90, 2-(2-fluoro-4-(7-methoxy-6-((1-methylazetidin-3-yl)oxy)quinoxalin-2-yl)phenyl)-N-(5-(1-(trifluoromethyl)cyclopropyl)isoxazol-3-yl)acetamide]
< 5	< 5	< 10	COc1cc2cc(-c3ccc(CC(=O)Nc4cc(C(C)(C)C(F)(F)F)on4)c(F)c3)cnc2cc1OCCO [Example 91, 2-(2-fluoro-4-(7-(2-hydroxyethoxy)-6-methoxyquinolin-3-yl)phenyl)-N-(5-(1,1,1-trifluoro-2-methylpropan-2-yl)isoxazol-3-yl)acetamide]

Second part, the molecule before the results:

Compound	Kd [1] [nM]	Kd [2] [nM]	IC50 [3] [nM]
COc1ccc2cc(-c3ccc(CC(=O)Nc4cc(C5(C(F)(F)F)CC5)on4)cc3)cnc2c1 [Example 2, 2-(4-(7-methoxyquinolin-3-yl)phenyl)-N-(5-(1-(trifluoromethyl)cyclopropyl)isoxazol-3-yl)acetamide]	< 5	< 5	< 10
O=C(Cc1ccc(-c2cnc3[nH]ccc3n2)cc1)Nc1cc(C2(C(F)(F)F)CC2)on1 [Example 3, 2-(4-(5H-pyrrolo[2,3-b]pyrazin-2-yl)phenyl)-N-(5-(1-(trifluoromethyl)cyclopropyl)isoxazol-3-yl)acetamide]	< 5	< 5	< 10
COc1cc2ncc(-c3ccc(CC(=O)Nc4cc(C5(C(F)(F)F)CC5)on4)c(F)c3)nc2cc1OC [Example 4, 2-(4-(6,7-dimethoxyquinoxalin-2-yl)-2-fluorophenyl)-N-(5-(1-(trifluoromethyl)cyclopropyl)isoxazol-3-yl)acetamide]	< 5	< 5	< 10
COc1cc2cc(-c3ccc(CC(=O)Nc4cc(C5(C(F)(F)F)CC5)on4)cc3)cnc2cc1OC [Example 5, 2-(4-(6,7-dimethoxyquinolin-3-yl)phenyl)-N-(5-(1-(trifluoromethyl)cyclopropyl)isoxazol-3-yl)acetamide]	< 5	< 5	< 10
COc1cc2ncc(-c3ccc(CC(=O)Nc4cc(C(C)(C)C)on4)cc3)nc2cc1OC [Example 6, N-(5-(tert-butyl)isoxazol-3-yl)-2-(4-(6,7-dimethoxyquinoxalin-2-yl)phenyl)acetamide]	< 5	< 5	< 10
COc1cc2ncc(-c3ccc(CC(=O)Nc4cc(C(C)(C)C(F)(F)F)on4)cc3)nc2cc1OC [Example 8, 2-(4-(6,7-dimethoxyquinoxalin-2-yl)phenyl)-N-(5-(1,1,1-trifluoro-2-methylpropan-2-yl)isoxazol-3-yl)acetamide]	< 5	< 5	< 10
COc1cc2ncc(-c3ccc(CC(=O)Nc4cc(C(C)(C)C(F)(F)F)on4)c(F)c3)nc2cc1OC [Example 46, 2-(4-(6,7-dimethoxyquinoxalin-2-yl)-2-fluorophenyl)-N-(5-(1,1,1-trifluoro-2-methylpropan-2-yl)isoxazol-3-yl)acetamide]	< 5	5 to 20	< 10
CC(O)c1n[nH]c2ncc(-c3ccc(CC(=O)Nc4cc(C(C)(C)C)on4)c(F)c3)cc12 (stereo not drawn) [Example 62, N-(5-(tert-butyl)isoxazol-3-yl)-2-(2-fluoro-4-(3-(1-hydroxyethyl)-1H-pyrazolo[3,4-b]pyridin-5-yl)phenyl)acetamide]	< 5	< 5	< 10
COc1n[nH]c2ncc(-c3ccc(CC(=O)Nc4cc(C(C)(C)C(F)(F)F)on4)c(F)c3)cc12 [Example 63, 2-(2-fluoro-4-(3-methoxy-1H-pyrazolo[3,4-b]pyridin-5-yl)phenyl)-N-(5-(1,1,1-trifluoro-2-methylpropan-2-yl)isoxazol-3-yl)acetamide]	< 5	< 5	< 10
CC(C)(C)c1cc(NC(=O)Cc2ccc(-c3cnc4[nH]c(C(=O)NCCO)cc4c3)cc2)no1 [Example 64, 5-(4-(2-((5-(tert-butyl)isoxazol-3-yl)amino)-2-oxoethyl)phenyl)-N-(2-hydroxyethyl)-1H-pyrrolo[2,3-b]pyridine-2-carboxamide]	< 5	< 5	< 10
CNC(=O)c1cc2cc(-c3ccc(CC(=O)Nc4cc(C(C)(C)C)on4)cc3)cnc2[nH]1 [Example 65, 5-(4-(2-((5-(tert-butyl)isoxazol-3-yl)amino)-2-oxoethyl)phenyl)-N-methyl-1H-pyrrolo[2,3-b]pyridine-2-carboxamide]	< 5	< 5	< 10
CN(C)CCNC(=O)c1cc2cc(-c3ccc(CC(=O)Nc4cc(C(C)(C)C)on4)cc3)cnc2[nH]1 [Example 66, 5-(4-(2-((5-(tert-butyl)isoxazol-3-yl)amino)-2-oxoethyl)phenyl)-N-(2-(dimethylamino)ethyl)-1H-pyrrolo[2,3-b]pyridine-2-carboxamide]	< 5	< 5	< 10
CN(C)CCCN(C)C(=O)c1cc2cc(-c3ccc(CC(=O)Nc4cc(C(C)(C)C)on4)cc3)cnc2[nH]1 [Example 67, 5-(4-(2-((5-(tert-butyl)isoxazol-3-yl)amino)-2-oxoethyl)phenyl)-N-(3-(dimethylamino)propyl)-N-methyl-1H-pyrrolo[2,3-b]pyridine-2-carboxamide]	< 5	< 5	< 10
CC(C)(C)c1cc(NC(=O)Cc2ccc(-c3cnc4[nH]c(C(=O)NCCS(C)(=O)=O)cc4c3)cc2)no1 [Example 68, 5-(4-(2-((5-(tert-butyl)isoxazol-3-yl)amino)-2-oxoethyl)phenyl)-N-(2-(methylsulfonyl)ethyl)-1H-pyrrolo[2,3-b]pyridine-2-carboxamide]	< 5	< 5	< 10
CN1CCC(NC(=O)c2cc3cc(-c4ccc(CC(=O)Nc5cc(C(C)(C)C)on5)cc4)cnc3[nH]2)CC1 [Example 69, 5-(4-(2-((5-(tert-butyl)isoxazol-3-yl)amino)-2-oxoethyl)phenyl)-N-(1-methylpiperidin-4-yl)-1H-pyrrolo[2,3-b]pyridine-2-carboxamide]	< 5	< 5	< 10
